“Also recorded” adds a separate entry of the source.
Key:
[1] = test system: UC, NSCLC, TNBC and PDAC patients; assay: Validation of the 6-gene signature (6TBRS) in atezolizumab clinical trials (IMvigor210, POPLAR); type: in vivo, human; details: patients with high expression of the 6-gene signature
From the text: We developed a pan-tissue 6-gene F-TBRS based on the 19-gene Pan-F-TBRS data described above but further prioritizing TGF-β pathway components (TGFB1 and TGFBR2) and targets (CTGF, ADAM19, ACTA2, and COMP). To validate the predictive value of the 6-gene signature, we calculated hazard ratios for prognostic effects (using univariate continuous Cox proportional hazards regression models) and predictive effects, and calculated hazard ratios for predictive effects (using the log-rank test with median cutoff) in atezolizumab clinical trials. […] See, e.g., FIGS. 6B and 6C, which show data from IMvigor210 and the POPLAR study (NCT01903993), respectively.

[2] = test system: metastatic urothelial carcinoma (mUC) patients; assay: IMvigor210 single-arm phase II study of atezolizumab: response (RECIST v1.1) and overall survival; type: in vivo, human
Description: Samples for this analysis were collected from IMvigor210, which was a single-arm phase II study investigating atezolizumab (1200 mg every 3 weeks (q3w)) in metastatic urothelial carcinoma (mUC) patients (Clinical Trial Identifier: NCT02108652). The primary endpoint of the trial was to achieve a partial response (PR) rate of over 10% (Response Evaluation Criteria In Solid Tumors (RECIST) v1.1). Patients who had failed previous platinum-based chemotherapy or previously untreated patients who were not eligible for platinum-based chemotherapy were eligible. The primary endpoint was met for both previously treated and untreated populations. It was a requirement for all patients to have tumor tissue taken in the 2 years prior to study entry. The tissues were initially used for PD-L1 analysis (SP142 antibody using the Ventana platform). PD-L1 positivity was defined as more that 5% of cells staining in the immune component of the tumor tissue. Additional tissue was used for exploratory analysis. All patients had measurable disease at baseline facilitating response assessment. RECIST v1.1 was used to assess response to therapy. Cross-sectional imaging was performed every 6 weeks. All patients gave […] for this analysis.
For investigation of the clinical activity of PD-L1 blockade with atezolizumab, 429 patients with advanced mUC were enrolled in a phase 2, single arm clinical trial (IMvigor210; NCT02108652). Objective response rate was assessed per RECIST v1.1 and served as a trial endpoint. […] Assessment of the association of PD-L1 expression on tumor-infiltrating immune cells (IC) on baseline tumors with response (objective response rate) was a co-primary endpoint. PD-L1 IC status was defined by the percentage of PD-L1-positive immune cells in the tumor microenvironment (TME): IC0 (<1%), IC1 (≥1% but <5%) and IC2+(≥5%).

For “atezolizumab: anti-PD-L1 antibody (Genentech), CAS Registry Number 1422185-06-5, also known as MPDL3280A”, the response/benefit from monotherapy [1] was “lack of benefit; also recorded: lack of response”, the response/benefit from monotherapy ([1]; listed as atezolimumab) was “lack of response” and the “primary endpoint: partial response (PR) rate of over 10% (RECIST v1.1)” value ([2]; 1200 mg q3w, previously treated and untreated mUC populations) was “met”. For the same substance, the response rate ([2]; Lund genomically unstable (GU) subtype) was 47.2%, the “overall survival (OS) benefit” value ([2]; high PD-L1 IC scores (IC2/3) relative to IC0/1) was “Improved OS benefit” and the response ([2]; high TGF-β 2-gene signature (TGFB1, TGFBR2)) was “lack of response”. For the same substance, the “overall survival (OS) benefit” value ([2]; high TMB relative to low TMB, median TMB as cutoff) was “improved OS benefit”, the response rate ([2]; other Lund subtypes) was 17.6% and the “overall survival (OS)” value ([2]; patients with both high TMB and high PD-L1 IC scores) was “Improved OS”. For the same substance, the “complete response (CR) rate” value ([2]; tumors with high PD-L1 expression on IC (IC2+) versus other IC levels) was “significantly higher complete response (CR) rate; also recorded: highest CR rate”.

Source: US11473151B2, “Diagnostic and therapeutic methods for cancer” (Genentech, Inc., priority 2017, dated 2022)
